Assay results from patent publication US6358885B1, “Substituted phenylheterocyclic herbicides” (Mississippi State University, priority 1992, dated 2002).

Tests used:
Experiment in all cases: Test B preemergence/postemergence greenhouse plant response rating 0 to 10
soybean = format: in vivo, Glycine max; conditions: for Plant response rating, Soybean: 0 to 10 scale
How it was run: (§1)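 Test chemicals, dissolved in a non-phytotoxic solvent, were applied to soil at planting and, at the same time, over foliage of seedlings at the one to four leaf stage.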

cheatgrass = format: in vivo, Bromus secalinus; conditions: for Plant response rating, Cheatgrass: 0 to 10 scale
How it was run: as §1

wheat = format: in vivo, Triticum aestivum; conditions: for Plant response rating, Wheat: 0 to 10 scale
How it was run: as §1

velvetleaf = format: in vivo, Abutilon theophrasti; conditions: for Plant response rating, Velvetleaf: 0 to 10 scale
How it was run: as §1

wild oat = format: in vivo, Avena fatua; conditions: for Plant response rating, Wild oat: 0 to 10 scale
How it was run: as §1

purple nutsedge = format: in vivo, Cyperus rotundus; conditions: for Plant response rating, Nutsedge: 0 to 10 scale
How it was run: as §1

cocklebur = format: in vivo, Xanthium pensylvanicum; conditions: for Plant response rating, Cocklebur: 0 to 10 scale
How it was run: as §1

sugar beet = format: in vivo, Beta vulgaris; conditions: for Plant response rating, Sugar beet: 0 to 10 scale
How it was run: as §1

bedstraw = format: in vivo, Galium aparine; conditions: for Plant response rating, Bedstraw: 0 to 10 scale
How it was run: as §1

lambsquarters = format: in vivo, Chenopodium album; conditions: for Plant response rating, Lambsquarter: 0 to 10 scale
How it was run: as §1

chickweed = format: in vivo, Stellaria media; conditions: for Plant response rating, Chickweed: 0 to 10 scale
How it was run: as §1

giant foxtail = format: in vivo, Setaria faberii; conditions: for Plant response rating, Giant foxtail: 0 to 10 scale
How it was run: as §1

corn = format: in vivo, Zea mays; conditions: for Plant response rating, Corn: 0 to 10 scale
How it was run: as §1

rice = format: in vivo, Oryza sativa; conditions: for Plant response rating, Rice: 0 to 10 scale
How it was run: as §1

crabgrass = format: in vivo, Digitaria spp.; conditions: for Plant response rating, Crabgrass: 0 to 10 scale
How it was run: as §1

cotton = format: in vivo, Gossypium hirsutum; conditions: for Plant response rating, Cotton: 0 to 10 scale
How it was run: as §1

barnyardgrass = format: in vivo, Echinochloa crus-galli; conditions: for Plant response rating, Barnyardgrass: 0 to 10 scale
How it was run: as §1

blackgrass = format: in vivo, Alopecurus myosuroides; conditions: for Plant response rating, Blackgrass: 0 to 10 scale
How it was run: as §1

wild buckwheat = format: in vivo, Polygonum convolvulus; conditions: for Plant response rating, Wild buckwheat: 0 to 10 scale
How it was run: as §1

morningglory = format: in vivo, Ipomoea hederacea; conditions: for Plant response rating, Morningglory: 0 to 10 scale
How it was run: as §1

sorghum = format: in vivo, Sorghum bicolor; conditions: for Plant response rating, Sorghum: 0 to 10 scale
How it was run: as §1

rape = format: in vivo, Brassica napus; conditions: for Plant response rating, Rape: 0 to 10 scale
How it was run: as §1

barley = format: in vivo, Hordeum vulgare; conditions: for Plant response rating, Barley: 0 to 10 scale
How it was run: as §1

For `CC(C)Oc1cc(-c2nn3c(c2Cl)CCCC3)c(Cl)cc1Cl` [Compound 70], the “Plant response rating, Soybean” value (soybean; POSTEMERGENCE, Rate 50 g/ha) was 5, the “Plant response rating, Soybean” value (soybean; PREEMERGENCE, Rate 50 g/ha) was 0 and the “Plant response rating (0 to 10 scale), Soybean” value (soybean; PREEMERGENCE, Rate 200 g/ha) was 0. For the same compound, the “Plant response rating, Soybean” value (soybean; Rate 200 g/ha, POSTEMERGENCE) was 6, the “Plant response rating, Cheatgrass” value (cheatgrass; POSTEMERGENCE, Rate 50 g/ha) was 3 and the “Plant response rating, Cheatgrass” value (cheatgrass; PREEMERGENCE, Rate 50 g/ha) was 0. The “Plant response rating (0 to 10 scale), Cheatgrass” value (cheatgrass; PREEMERGENCE, Rate 200 g/ha) was 2, the “Plant response rating, Cheatgrass” value (cheatgrass; Rate 200 g/ha, POSTEMERGENCE) was 4 and the “Plant response rating, Wheat” value (wheat; POSTEMERGENCE, Rate 50 g/ha) was 4. The “Plant response rating, Wheat” value (wheat; PREEMERGENCE, Rate 50 g/ha) was 2, the “Plant response rating (0 to 10 scale), Wheat” value (wheat; PREEMERGENCE, Rate 200 g/ha) was 3 and the “Plant response rating, Wheat” value (wheat; Rate 200 g/ha, POSTEMERGENCE) was 5. The “Plant response rating, Velvetleaf” value (velvetleaf; POSTEMERGENCE, Rate 50 g/ha) was 10, the “Plant response rating, Velvetleaf” value (velvetleaf; PREEMERGENCE, Rate 50 g/ha) was 0 and the “Plant response rating (0 to 10 scale), Velvetleaf” value (velvetleaf; PREEMERGENCE, Rate 200 g/ha) was 5. For the same compound, the “Plant response rating, Velvetleaf” value (velvetleaf; Rate 200 g/ha, POSTEMERGENCE) was 10, the “Plant response rating, Wild oat” value (wild oat; POSTEMERGENCE, Rate 50 g/ha) was 2 and the “Plant response rating, Wild oat” value (wild oat; PREEMERGENCE, Rate 50 g/ha) was 2. The “Plant response rating (0 to 10 scale), Wild oat” value (wild oat; PREEMERGENCE, Rate 200 g/ha) was 3, the “Plant response rating, Wild oat” value (wild oat; Rate 200 g/ha, POSTEMERGENCE) was 3 and the “Plant response rating, Nutsedge” value (purple nutsedge; POSTEMERGENCE, Rate 50 g/ha) was 1. The “Plant response rating, Nutsedge” value (purple nutsedge; PREEMERGENCE, Rate 50 g/ha) was 0, the “Plant response rating (0 to 10 scale), Nutsedge” value (purple nutsedge; PREEMERGENCE, Rate 200 g/ha) was 0 and the “Plant response rating, Nutsedge” value (purple nutsedge; Rate 200 g/ha, POSTEMERGENCE) was 5. The “Plant response rating, Cocklebur” value (cocklebur; POSTEMERGENCE, Rate 50 g/ha) was 8, the “Plant response rating, Cocklebur” value (cocklebur; PREEMERGENCE, Rate 50 g/ha) was 0 and the “Plant response rating (0 to 10 scale), Cocklebur” value (cocklebur; PREEMERGENCE, Rate 200 g/ha) was 0. For the same compound, the “Plant response rating, Cocklebur” value (cocklebur; Rate 200 g/ha, POSTEMERGENCE) was 8, the “Plant response rating, Sugar beet” value (sugar beet; POSTEMERGENCE, Rate 50 g/ha) was 10 and the “Plant response rating, Sugar beet” value (sugar beet; PREEMERGENCE, Rate 50 g/ha) was 6. The “Plant response rating (0 to 10 scale), Sugar beet” value (sugar beet; PREEMERGENCE, Rate 200 g/ha) was 10, the “Plant response rating, Sugar beet” value (sugar beet; Rate 200 g/ha, POSTEMERGENCE) was 10 and the “Plant response rating, Bedstraw” value (bedstraw; POSTEMERGENCE, Rate 50 g/ha) was 8. For the same compound, the “Plant response rating, Bedstraw” value (bedstraw; PREEMERGENCE, Rate 50 g/ha) was 1, the “Plant response rating (0 to 10 scale), Bedstraw” value (bedstraw; PREEMERGENCE, Rate 200 g/ha) was 6 and the “Plant response rating, Bedstraw” value (bedstraw; Rate 200 g/ha, POSTEMERGENCE) was 7. For the same compound, the “Plant response rating, Lambsquarter” value (lambsquarters; POSTEMERGENCE, Rate 50 g/ha) was 9, the “Plant response rating, Lambsquarter” value (lambsquarters; PREEMERGENCE, Rate 50 g/ha) was 7 and the “Plant response rating (0 to 10 scale), Lambsquarter” value (lambsquarters; PREEMERGENCE, Rate 200 g/ha) was 10. For the same compound, the “Plant response rating, Lambsquarter” value (lambsquarters; Rate 200 g/ha, POSTEMERGENCE) was 10, the “Plant response rating, Chickweed” value (chickweed; POSTEMERGENCE, Rate 50 g/ha) was 2 and the “Plant response rating, Chickweed” value (chickweed; PREEMERGENCE, Rate 50 g/ha) was 0. For the same compound, the “Plant response rating (0 to 10 scale), Chickweed” value (chickweed; PREEMERGENCE, Rate 200 g/ha) was 0, the “Plant response rating, Chickweed” value (chickweed; Rate 200 g/ha, POSTEMERGENCE) was 3 and the “Plant response rating, Giant foxtail” value (giant foxtail; POSTEMERGENCE, Rate 50 g/ha) was 5. For the same compound, the “Plant response rating, Giant foxtail” value (giant foxtail; PREEMERGENCE, Rate 50 g/ha) was 0, the “Plant response rating (0 to 10 scale), Giant foxtail” value (giant foxtail; PREEMERGENCE, Rate 200 g/ha) was 4 and the “Plant response rating, Giant foxtail” value (giant foxtail; Rate 200 g/ha, POSTEMERGENCE) was 5. The “Plant response rating, Corn” value (corn; POSTEMERGENCE, Rate 50 g/ha) was 4, the “Plant response rating, Corn” value (corn; PREEMERGENCE, Rate 50 g/ha) was 0 and the “Plant response rating (0 to 10 scale), Corn” value (corn; PREEMERGENCE, Rate 200 g/ha) was 0. The “Plant response rating, Corn” value (corn; Rate 200 g/ha, POSTEMERGENCE) was 4, the “Plant response rating, Rice” value (rice; POSTEMERGENCE, Rate 50 g/ha) was 5 and the “Plant response rating, Rice” value (rice; PREEMERGENCE, Rate 50 g/ha) was 0. For the same compound, the “Plant response rating (0 to 10 scale), Rice” value (rice; PREEMERGENCE, Rate 200 g/ha) was 0, the “Plant response rating, Rice” value (rice; Rate 200 g/ha, POSTEMERGENCE) was 5 and the “Plant response rating, Crabgrass” value (crabgrass; POSTEMERGENCE, Rate 50 g/ha) was 3. The “Plant response rating, Crabgrass” value (crabgrass; PREEMERGENCE, Rate 50 g/ha) was 0, the “Plant response rating (0 to 10 scale), Crabgrass” value (crabgrass; PREEMERGENCE, Rate 200 g/ha) was 2 and the “Plant response rating, Crabgrass” value (crabgrass; Rate 200 g/ha, POSTEMERGENCE) was 6. The “Plant response rating, Cotton” value (cotton; POSTEMERGENCE, Rate 50 g/ha) was 10, the “Plant response rating, Cotton” value (cotton; PREEMERGENCE, Rate 50 g/ha) was 0 and the “Plant response rating (0 to 10 scale), Cotton” value (cotton; PREEMERGENCE, Rate 200 g/ha) was 0. The “Plant response rating, Cotton” value (cotton; Rate 200 g/ha, POSTEMERGENCE) was 10, the “Plant response rating, Barnyardgrass” value (barnyardgrass; POSTEMERGENCE, Rate 50 g/ha) was 6 and the “Plant response rating, Barnyardgrass” value (barnyardgrass; PREEMERGENCE, Rate 50 g/ha) was 0. For the same compound, the “Plant response rating (0 to 10 scale), Barnyardgrass” value (barnyardgrass; PREEMERGENCE, Rate 200 g/ha) was 0, the “Plant response rating, Barnyardgrass” value (barnyardgrass; Rate 200 g/ha, POSTEMERGENCE) was 7 and the “Plant response rating, Blackgrass” value (blackgrass; PREEMERGENCE, Rate 50 g/ha) was 0. For the same compound, the “Plant response rating (0 to 10 scale), Blackgrass” value (blackgrass; PREEMERGENCE, Rate 200 g/ha) was 0, the “Plant response rating, Blackgrass” value (blackgrass; Rate 200 g/ha, POSTEMERGENCE) was 3 and the “Plant response rating, Wild buckwheat” value (wild buckwheat; POSTEMERGENCE, Rate 50 g/ha) was 10. The “Plant response rating, Wild buckwheat” value (wild buckwheat; PREEMERGENCE, Rate 50 g/ha) was 8, the “Plant response rating (0 to 10 scale), Wild buckwheat” value (wild buckwheat; PREEMERGENCE, Rate 200 g/ha) was 8 and the “Plant response rating, Wild buckwheat” value (wild buckwheat; Rate 200 g/ha, POSTEMERGENCE) was 10. The “Plant response rating, Morningglory” value (morningglory; POSTEMERGENCE, Rate 50 g/ha) was 7, the “Plant response rating, Morningglory” value (morningglory; PREEMERGENCE, Rate 50 g/ha) was 0 and the “Plant response rating (0 to 10 scale), Morningglory” value (morningglory; PREEMERGENCE, Rate 200 g/ha) was 0. For the same compound, the “Plant response rating, Morningglory” value (morningglory; Rate 200 g/ha, POSTEMERGENCE) was 8, the “Plant response rating, Sorghum” value (sorghum; POSTEMERGENCE, Rate 50 g/ha) was 5 and the “Plant response rating, Sorghum” value (sorghum; PREEMERGENCE, Rate 50 g/ha) was 0. The “Plant response rating (0 to 10 scale), Sorghum” value (sorghum; PREEMERGENCE, Rate 200 g/ha) was 0, the “Plant response rating, Sorghum” value (sorghum; Rate 200 g/ha, POSTEMERGENCE) was 6 and the “Plant response rating, Rape” value (rape; POSTEMERGENCE, Rate 50 g/ha) was 7. For the same compound, the “Plant response rating, Rape” value (rape; PREEMERGENCE, Rate 50 g/ha) was 2, the “Plant response rating (0 to 10 scale), Rape” value (rape; PREEMERGENCE, Rate 200 g/ha) was 3 and the “Plant response rating, Rape” value (rape; Rate 200 g/ha, POSTEMERGENCE) was 9. The “Plant response rating, Barley” value (barley; POSTEMERGENCE, Rate 50 g/ha) was 3, the “Plant response rating, Barley” value (barley; PREEMERGENCE, Rate 50 g/ha) was 0 and the “Plant response rating (0 to 10 scale), Barley” value (barley; PREEMERGENCE, Rate 200 g/ha) was 0. The “Plant response rating, Barley” value (barley; Rate 200 g/ha, POSTEMERGENCE) was 4.
